Data reported in patent US20250263412A1, “NON-HYDROXAMATE HDAC6 INHIBITORS AND RELATED METHODS OF USE” (The Regents of the University of Michigan, priority 2021, published 2025).

How the values were obtained:
wild-type DIO mice = assay: Diet-induced obesity study, daily intraperitoneal injections; type: in vivo, mouse
Description: (§1) Animals were housed at a 12 hours dark/light cycle, temperature and humidity controlled rooms. Mice were purchased from the Jackson LABoratory, except the HDAC6 global knockout (KO) mice, which were provided by Dr. Timothy A. Mckinsey (University of Colorado Anschutz Medical Campus, Aurora, CO, USA.). Mice were fed either regular chow or high fat diet (60 kcal % fat, Research Diets) to induce obesity (diet-induced obesity) and had free access to food and water unless specified. Body composition was analyzed with Bruker's minispec LF50 Body Composition Analyzer. Blood glucose was measured from tail vein by Contour blood glucose monitor system (Bayer). TubA (25 mg/kg body weight) or SE-7552 (50 mg/kg body weight) were administered within 1 hr before dark cycle daily by intraperitoneal (ip.) injections. For intraperitoneal injections, drugs or vehicle was injected at 25 uL volumes per animal. Mice and their food were measured daily or weekly to track body weight and food intake. Hematoxylin and eosin (H&E) staining of liver sections of diet-induced obese mice were done after one month of vehicle or TubA injections.

db/db mice = assay: Body weight study in db/db mice; type: in vivo, mouse; settings: SE-7552 50 mg/kg, i.p., daily
Description: as §1

[1] = tested on: HDAC6 versus all other known HDAC isozymes; settings: cited from earlier work

## CC(Nc1ncc(-c2nnc(C(F)F)o2)cn1)c1ccc(F)cc1 (stereo not shown) [SE7552]
wild-type DIO mice; SE-7552 50 mg/kg, i.p., daily
  obesity (body weight change, FIG. 1e): effectively reduces obesity
db/db mice
  weight loss (body weight change, FIG. 1f): ineffective at inducing weight loss
[1]
  selectivity versus all other known HDAC isozymes: About 1000 fold

## CN1CCc2c(c3ccccc3n2Cc2ccc(C(=O)NO)cc2)C1 [Tubastatin A]
wild-type DIO mice; Tubastatin 25 mg/kg, daily i.p.
  diet-induced obesity (FIG. 2): Reverses Diet-Induced Obesity
